According to US20240285571A1, “METHODS OF TREATING BONE INFECTIONS” (MICROBION CORPORATION, priority 2020, published 2024):
One block for each molecule: values may come before it.

Assays:
[1] = system: Staphylococcus hominis; assay: MIC of baseline clinical isolates (Example 8); type: cell-based; settings: Staphylococcus hominis baseline isolates (N′ = 1), central laboratory, mITT
Protocol: (§1) Microbiology was assessed on Day 1 and at the time of any subsequent surgical procedure at the index site. Samples were collected from the infected bone site or involved tissue adjacent to any implant(s), swabs of the deep infection site, and the superficial tissue/wound closure/sinus tract site. […] Parallel sets of samples were analyzed by the local clinical site laboratory to guide patient antibiotic treatment.

[2] = system: S. epidermidis; assay: MIC of baseline clinical isolates (Example 8); type: cell-based; settings: Staphylococcus epidermidis baseline isolates (N′ = 5), central laboratory, mITT
Protocol: as §1

[3] = system: Staphylococcus haemolyticus; assay: MIC of baseline clinical isolates (Example 8); type: cell-based; settings: Staphylococcus haemolyticus baseline isolates (N′ = 1), central laboratory, mITT
Protocol: as §1

[4] = system: S. aureus (MRSA, MSSA); assay: MIC of baseline clinical isolates (Example 8); type: cell-based; settings: Staphylococcus aureus, MRSA baseline isolates (N′ = 4), central laboratory, mITT
Protocol: as §1

[5] = system: Staphylococcus lugdunensis; assay: MIC of baseline clinical isolates (Example 8); type: cell-based; settings: Staphylococcus lugdunensis baseline isolates (N′ = 3), central laboratory, mITT
Protocol: as §1

[6] = system: Staphylococcus arlettae; assay: MIC of baseline clinical isolates (Example 8); type: cell-based; settings: Staphylococcus arlettae baseline isolates (N′ = 1), central laboratory, mITT
Protocol: as §1

[7] = system: Staphylococcus pasteuri; assay: MIC of baseline clinical isolates (Example 8); type: cell-based; settings: Staphylococcus pasteuri baseline isolates (N′ = 1), central laboratory, mITT
Protocol: as §1

[8] = system: Streptococcus oralis; assay: MIC of baseline clinical isolates (Example 8); type: cell-based; settings: Streptococcus oralis baseline isolates (N′ = 1), central laboratory, mITT
Protocol: (§2) Microbiology was assessed on Day 1 and at the time of any subsequent surgical procedure at the index site. Samples were collected from the infected bone site or involved tissue adjacent to any implant(s), swabs of the deep infection site, and the superficial tissue/wound closure/sinus tract site. Isolation and identification of aerobic and anerobic bacteria was conducted at a central microbiology laboratory (IHMA, Schaumburg, IL) and susceptibility of the isolates to MBN-101 (BisEDT) and comparator agents was performed per Clinical and Laboratory Standards Institute (CLSI). Parallel sets of samples were analyzed by the local clinical site laboratory to guide patient antibiotic treatment.

[9] = system: Corynebacterium jeikeium; assay: MIC of baseline clinical isolates (Example 8); type: cell-based; settings: Corynebacterium jeikeium baseline isolates (N′ = 2), central laboratory, mITT
Protocol: as §2

[10] = system: Corynebacterium amycolatum; assay: MIC of baseline clinical isolates (Example 8); type: cell-based; settings: Corynebacterium amycolatum baseline isolates (N′ = 1), central laboratory, mITT
Protocol: as §2

[11] = system: Corynebacterium resistens; assay: MIC of baseline clinical isolates (Example 8); type: cell-based; settings: Corynebacterium resistens baseline isolates (N′ = 1), central laboratory, mITT
Protocol: as §2

[12] = system: non-speciated Corynebacterium; assay: MIC of baseline clinical isolates (Example 8); type: cell-based; settings: Corynebacterium non-speciated baseline isolates (N′ = 2), central laboratory, mITT
Protocol: as §2

[13] = system: Dermabacter hominis; assay: MIC of baseline clinical isolates (Example 8); type: cell-based; settings: Dermabacter hominis baseline isolates (N′ = 1), central laboratory, mITT
Protocol: as §2

[14] = system: relevant ATCC QC organisms; settings: S. aureus ATCC 29213; CLSI established QC range; cited from earlier work
[15] = system: relevant ATCC QC organisms; assay: Broth microdilution MIC, QC (Example 6); type: cell-based; settings: S. aureus ATCC 29213
Protocol: (§3) Test Compounds: The test agents BisEDT (MB-1-B3; Lot No. ED268-1-11-01), MB-2B, and MB-6 were stored at room temperature, in the dark, until assayed. The solvent and diluent for the test agents was DMSO (Sigma; St. Louis, MO; Lot No. SHBB9319V) and the prepared stock concentration was 6,464 μg/mL (101× the final test concentration).
(§4) Test compounds were evaluated at a concentration range of 0.06-64 μg/mL. For Gram-negative test isolates, amikacin and ceftazidime (alone and with clavulanate at a fixed concentration of 4 μg/mL) were evaluated over a concentration range of 0.06-64 μg/mL; meropenem and levofloxacin were evaluated over a concentration range of 0.008-8 μg/mL. For the testing of S. aureus, clindamycin, daptomycin, levofloxacin and vancomycin were evaluated at a concentration range of 0.008-8 μg/mL; linezolid was tested from 0.03-32 μg/mL.
Organisms: The test organisms as shown in Tables 11-15 consisted of clinical isolates from the Micromyx (MMX) repository and reference strains from the American Type Culture Collection (ATCC; Manassas, VA), National Collection of Type Cultures (NCTC; Public Health England, Salisbury, UK), the Network on Antimicrobial Resistance in Staphylococcus aureus (NARSA; BEI Resources, Manassas, VA), and the Centers for Disease Control and Prevention (CDC; Atlanta, GA). The test organisms were maintained frozen at −80° C. Prior to testing, the isolates were cultured on Tryptic Soy Agar with 5% sheep blood (BAP; Becton Dickson [BD]/BBL; Sparks, MD; Lot Nos. 9080650 and 9108563) at 35° C. Relevant ATCC quality control (QC) organisms (Table 16) were included during testing in accordance with CLSI guidelines (3). Further details on the genetic characterization of the isolates where available can be found in Table 17.
(§5) Media: Cation-adjusted Mueller Hinton broth (CAMHB; BD; Lot No. 8190586) was used as the medium for testing (2, 3). For testing daptomycin, calcium was supplemented with […] Ca^2+, resulting in a final concentration of […] Ca^2+ (2, 3).
(§6) MIC Assay Procedure: MIC values were determined using a broth microdilution procedure described by CLSI (2, 3). Automated liquid handlers (Multidrop 384, Labsystems, Helsinki, Finland; Biomek 2000 and Biomek F X, Beckman Coulter, Fullerton CA) were used to conduct serial dilutions and liquid transfers.
(§7) To prepare the drug mother plates, which would provide the serial drug dilutions for the replicate daughter plates, the wells of columns 2 through 12 of standard 96-well microdilution plates (Costar 3795) were filled with 150 μl of the appropriate diluent for each row of drug. The test articles and comparator compounds (300 μl at 101× the highest concentration to be tested) were dispensed into the appropriate wells in column 1. The Biomek 2000 was then used to make 2-fold serial dilutions in the mother plates from column 1 through column 11. The wells of column 12 contained no drug and served as the organism growth control wells for the assay.
(§8) The daughter plates were loaded with 190 μL per well of RPMI using the Multidrop 384. The test panels were prepared on the Biomek FX instrument which transferred 2 μL of drug solution from each well of a mother plate to the corresponding well of each daughter plate in a single step.
(§9) A standardized inoculum of each test organism was prepared per CLSI methods to equal a 0.5 McFarland standard, followed by a dilution of 1:20. The plates were then inoculated with 10 μL of the diluted inoculum using the Biomek 2000 from low to high drug concentration resulting in a final concentration of approximately 5×10^5 CFU/mL.
(§10) Plates were stacked 3-4 high, covered with a lid on the top plate, placed into plastic bags, and incubated at 35° C. for 16 to 20 hr (vancomycin was read for S. aureus after 24 hr incubation time). The MIC was recorded as the lowest concentration of drug that inhibited visible growth of the organism.

[16] = system: vancomycin-intermediate Staphylococcus aureus; assay: Broth microdilution MIC (Example 6); type: cell-based
Protocol: as §3, §4, §5, §6, §7, §8, §9, §10

[17] = system: Anaerococcus murdochii; assay: MIC of baseline clinical isolates (Example 8); type: cell-based; settings: Anaerococcus murdochii baseline isolates (N′ = 1), central laboratory, mITT
Protocol: as §1

[18] = system: F. magna; assay: MIC of baseline clinical isolates (Example 8); type: cell-based; settings: Finegoldia magna baseline isolates (N′ = 4), central laboratory, mITT
Protocol: as §1

[19] = system: Peptoniphilus gorbachii; assay: MIC of baseline clinical isolates (Example 8); type: cell-based; settings: Peptoniphilus gorbachii baseline isolates (N′ = 1), central laboratory, mITT
Protocol: as §1

[20] = system: Cutibacterium [Propionibacterium] acnes; assay: MIC of baseline clinical isolates (Example 8); type: cell-based; settings: Cutibacterium (Proprionibacterium) acnes baseline isolates (N′ = 3), central laboratory, mITT
Protocol: as §1

[21] = system: Actinomyces turicensis; assay: MIC of baseline clinical isolates (Example 8); type: cell-based; settings: Actinomyces turicensis baseline isolates (N′ = 1), central laboratory, mITT
Protocol: as §1

[22] = system: Clostridium sphenoides; assay: MIC of baseline clinical isolates (Example 8); type: cell-based; settings: Clostridium sphenoides baseline isolates (N′ = 1), central laboratory, mITT
Protocol: as §1

[23] = system: non-speciated Anaerococcus; assay: MIC of baseline clinical isolates (Example 8); type: cell-based; settings: Anaerococcus non-speciated baseline isolates (N′ = 1), central laboratory, mITT
Protocol: as §1

[24] = S. aureus isolate NRS 1 (hVISA)
[25] = S. aureus isolate NRS 24 (hVISA)

SMILES: CC(=O)NC[C@H]1CN(c2ccc(N3CCOCC3)c(F)c2)C(=O)O1 [LZD]
Mean MIC [1]: 0.50 µg/mL
n (% resistant) [1]: 0 (0.0) n (%)
Mean MIC [2]: 0.80 µg/mL
n (% resistant) [2]: 0 (0.0) n (%)
Mean MIC [3]: 1.00 µg/mL
n (% resistant) [3]: 0 (0.0) n (%)
Mean MIC [4]: 1.25 µg/mL
n (% resistant) [4]: 0 (0.0) n (%)
Mean MIC [5]: 0.83 µg/mL
n (% resistant) [5]: 0 (0.0) n (%)
Mean MIC [6]: 2.00 µg/mL
n (% resistant) [6]: 0 (0.0) n (%)
Mean MIC [7]: 1.00 µg/mL
n (% resistant) [7]: 0 (0.0) n (%)
Mean MIC [8]: 1.00 µg/mL
n (% resistant) [8]: 0 (0.0) n (%)
Mean MIC [9]: 0.38 µg/mL
n (% resistant) [9]: 0 (0.0) n (%)
Mean MIC [10]: 0.12 µg/mL
n (% resistant) [10]: 0 (0.0) n (%)
Mean MIC [11]: 0.25 µg/mL
n (% resistant) [11]: 0 (0.0) n (%)
Mean MIC [12]: 0.18 µg/mL
n (% resistant) [12]: 0 (0.0) n (%)
Mean MIC [13]: 0.50 µg/mL
n (% resistant) [13]: 0 (0.0) n (%)
MIC QC range (in parentheses) [14]: (1-4) μg/mL
MIC [15]: 4 µg/mL
MIC [16, 24]: 1 µg/mL
MIC ([16]; S. aureus isolate NRS 2): 4 µg/mL
MIC ([16]; S. aureus isolate NRS 3): 1 µg/mL
MIC ([16]; S. aureus isolate NRS 4): 1 µg/mL
MIC ([16]; S. aureus isolate NRS 13): 2 µg/mL
MIC ([16]; S. aureus isolate NRS 18): 1 µg/mL
MIC ([16]; S. aureus isolate NRS 22): 1 µg/mL
MIC [16, 25]: 2 µg/mL
MIC ([16]; S. aureus isolate NRS 27): 2 µg/mL

Mean MIC [17]: 1.00 µg/mL
Mean MIC [18]: 0.56 µg/mL
Mean MIC [19]: 0.50 µg/mL
Mean MIC [20]: 16.00 µg/mL
Mean MIC [21]: 16.00 µg/mL
Mean MIC [22]: 0.32 µg/mL
Mean MIC [23]: 16.00 µg/mL
SMILES: Cc1ncc([N+](=O)[O-])n1CCO [MTZ]
n (% resistant) [17]: 0 (0.0) n (%)
n (% resistant) [18]: 0 (0.0) n (%)
n (% resistant) [19]: 0 (0.0) n (%)
n (% resistant) [20]: 3 (100.0) n (%)
n (% resistant) [21]: 1 (100.0) n (%)
n (% resistant) [22]: 0 (0.0) n (%)
n (% resistant) [23]: 1 (100.0) n (%)

SMILES: CN[C@H](CC(C)C)C(=O)N[C@H]1C(=O)N[C@@H](CC(N)=O)C(=O)N[C@H]2C(=O)N[C@H]3C(=O)N[C@H](C(=O)N[C@H](C(=O)O)c4cc(O)cc(O)c4-c4cc3ccc4O)[C@H](O)c3ccc(c(Cl)c3)Oc3cc2cc(c3O[C@@H]2O[C@H](CO)[C@@H](O)[C@H](O)[C@H]2O[C@H]2C[C@](C)(N)[C@H](O)[C@H](C)O2)Oc2ccc(cc2Cl)[C@H]1O [VAN]
Mean MIC [1]: 2.00 µg/mL
n (% resistant) [1]: 0 (0.0) n (%)
Mean MIC [2]: 150 µg/mL
n (% resistant) [2]: 0 (0.0) n (%)
Mean MIC [3]: 1.00 µg/mL
Mean MIC [4]: 1.25 µg/mL
n (% resistant) [4]: 0 (0.0) n (%)
Mean MIC [5]: 0.83 µg/mL
n (% resistant) [5]: 0 (0.0) n (%)
Mean MIC [6]: 2.00 µg/mL
n (% resistant) [6]: 0 (0.0) n (%)
Mean MIC [7]: 1.00 µg/mL
n (% resistant) [7]: 0 (0.0) n (%)
Mean MIC [8]: 0.50 µg/mL
n (% resistant) [8]: 0 (0.0) n (%)
n (% resistant) [9]: 0 (0.0) n (%)
n (% resistant) [10]: 0 (0.0) n (%)
Mean MIC [11]: 1.00 µg/mL
n (% resistant) [11]: 0 (0.0) n (%)
Mean MIC [12]: 0.12 µg/mL
n (% resistant) [12]: 0 (0.0) n (%)
Mean MIC [13]: 0.25 µg/mL
n (% resistant) [13]: 0 (0.0) n (%)
MIC QC range (in parentheses) [14]: (0.5-2) μg/mL
MIC [15]: 0.5 µg/mL
MIC [16, 24]: 4 µg/mL
MIC ([16]; S. aureus isolate NRS 2): 0.5 µg/mL
MIC ([16]; S. aureus isolate NRS 3): 8 µg/mL
MIC ([16]; S. aureus isolate NRS 4): 4 µg/mL
MIC ([16]; S. aureus isolate NRS 13): 2 µg/mL
MIC ([16]; S. aureus isolate NRS 18): 4 µg/mL
MIC ([16]; S. aureus isolate NRS 22): 4 µg/mL
MIC [16, 25]: 2 µg/mL
MIC ([16]; S. aureus isolate NRS 27): 2 µg/mL
